Measured values: PMC3787718 (Structure (London, England : 1993), 2013)

Biological target: T1, GLIC (Gloeobacter violaceus ligand-gated ion channel) (Gloeobacter violaceus, UniProt Q7NDN8)
T1 sequence (Q7NDN8 44-359): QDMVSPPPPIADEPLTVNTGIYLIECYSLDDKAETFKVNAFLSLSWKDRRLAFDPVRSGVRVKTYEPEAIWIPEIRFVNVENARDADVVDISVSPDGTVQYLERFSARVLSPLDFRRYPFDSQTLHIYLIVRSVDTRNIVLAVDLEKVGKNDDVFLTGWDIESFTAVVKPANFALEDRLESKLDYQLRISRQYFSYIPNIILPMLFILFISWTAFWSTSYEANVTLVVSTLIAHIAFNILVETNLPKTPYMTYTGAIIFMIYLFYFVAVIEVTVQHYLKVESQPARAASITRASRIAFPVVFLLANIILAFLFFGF
Test: two-electrode voltage clamp in Xenopus oocytes, inhibition of proton-activated
Type: cell-based

## FC(F)OC(F)C(F)(F)F (stereo not shown) [DSF, desflurane]
  IC50: 1100 µM
